Assay results reported in US10954253B2, “1,2-dihydro-3H-pyrazolo[3,4-d]pyrimidin-3-one derivative as Wee1 inhibitor” (SHIJIAZHUANG SAGACITY NEW DRUG DEVELOPMENT CO., LTD., priority 2017, dated 2021).
In brackets after ≈: the same amount, converted by molar mass. Read-outs that look alike come from different tables or passages of the source.

What was measured:
[1] = Thermodynamic solubility determination; format: physicochemical; details: for solubility at 24 h: buffer, 22 °C, aqueous buffer, thermodynamic from solid
Procedure: No less than 2 mg sample powder was weighted in a Whatman miniuniprep vial. If the experiment required to test the thermodynamic solubility of the sample in multiple buffer solutions, then separate vial was required for each test.
[…] After addition of the buffer, the Whatman filter cap of the miniuniprep is mounted and pressed until it was above the liquid level to allow the filter to contact with the buffer solution during shaking. The solubility sample was vortexed for 2 minutes. And the solution phenomenon was recorded. Then the vial was shaked at room temperature (about 22 to 25° C.) for 24 hours at a speed of 550 rpm. And the Whatman Miniunipreps filter cap was pressed to bottom to obtain the filtrate of the solubility solution of the sample. All sample vials should conduct filtration for the insoluble matter before and after and osmotic phenomenon. The […] was diluted 50 times to obtain a sample dilution.
Three UV standard solutions were injected from low to high concentrations into HPLC, and then dilution and supernatant of the test compounds were injected. The sample was injected and tested twice. Integration was conducted to the UV peaks. The standard curve was established and the thermodynamic solubility of the sample was calculated.

[2] = Tissue distribution (PK) in BALB/c nude mice bearing human colon cancer LoVo xenografts; format: in vivo; details: mouse, LoVo xenograft mice, oral 40 mg/kg twice a day for three weeks, after last administration
Procedure: (1) In vivo PD study of the compound used on tumors of human colon cancer LoVo cells subcutaneously xenografted to BALB/c nude mice model
Experimental method: the experimental animals used were BALB/c nude mice (provided by Shanghai Xipuer-Beikai Experimental animal CO., Ltd), 6-8 weeks old, weighting 18-22 g.
Human colon cancer LoVo cells, monolayer-cultured in vitro, culturing condition was Ham's F-12 medium supplemented with 10% fetal bovine serum, 100 U/mL penicillin, 100 μg/mL streptomycin and 2 mM glutamine, 37° C., 5% CO2. Conventional digestion treatment passage was done with trypsin-EDTA twice a week. When the cell saturation reached 80%-90%, the cells were collected, counted, and inoculated. 0.1 mL (10×106) of LoVo cells were subcutaneously inoculated into the right back of each nude mouse, and group administration was started when the average tumor volume reached 213 mm^3. The administration mode was oral administration, 40 mg/kg twice a day for three consecutive weeks.
After the last administration of the experiment, a portion of plasma, tumor, intestine, brain, lung, liver and pancreas was collected from the number 1-2 animals after 0.5 h of administration, and quick-froze for PK detection; a portion of plasma, tumor, intestine, brain, lung, liver and pancreas was collected from the number 3-4 animals after 2 h of administration, and quick-froze for PK detection; a portion of plasma, tumor, intestine, brain, lung, liver and pancreas was collected from the number 5-6 animals after 8 h of administration, and quick-froze for PK detection. The tumor, intestine, brain, lung, liver and pancreas were weighted separately and added 9 times volumes of homogenate MeOH/15 mM PBS (1:2, v:v) for homogenization. 20 μL sample was added into 300 μL of the stop buffer including internal standard for protein precipitation, and shaked to mix well. The mixture was centrifuged at 13,000 rpm for 10 minutes at 20-25° C., and 3 μL of the supernatant was taken for LCMS analysis.

[3] = Pharmacokinetic evaluation in BALB/c mice after intravenous and oral administration; format: in vivo; details: mouse, plasma, BALB/c mice (female), single intravenous injection and oral administration; for clearance: read-out: Clearance rate; for AUC: read-out: Concentration integral AUC; for half-life: read-out: Half-life T1/2 (converted); for bioavailability: read-out: bioavailability F
Procedure: Experimental objective: pharmacokinetics evaluation of the compound in BALB/c nude mice.
The rodent pharmacological characteristics of the compound after intravenous administration and oral administration were tested by a standard protocol, the candidate compound in the experiment was formulated into a clear solution, and the mice were administered by a single intravenous injection and oral administration. The intravenous and oral vehicles are a certain proportion of aqueous hydroxypropyl 3-cyclodextrin or physiological saline solution.

[4] = biological target: Wee1 (Homo sapiens (Human), UniProt P30291); experiment: In vitro enzymatic inhibitory activity (33P-ATP filter-binding kinase assay, MBP substrate); format: biochemical; details: Wee-1 150 nM, MBP 20 μM
Sequence of Wee1 (P30291 whole entry): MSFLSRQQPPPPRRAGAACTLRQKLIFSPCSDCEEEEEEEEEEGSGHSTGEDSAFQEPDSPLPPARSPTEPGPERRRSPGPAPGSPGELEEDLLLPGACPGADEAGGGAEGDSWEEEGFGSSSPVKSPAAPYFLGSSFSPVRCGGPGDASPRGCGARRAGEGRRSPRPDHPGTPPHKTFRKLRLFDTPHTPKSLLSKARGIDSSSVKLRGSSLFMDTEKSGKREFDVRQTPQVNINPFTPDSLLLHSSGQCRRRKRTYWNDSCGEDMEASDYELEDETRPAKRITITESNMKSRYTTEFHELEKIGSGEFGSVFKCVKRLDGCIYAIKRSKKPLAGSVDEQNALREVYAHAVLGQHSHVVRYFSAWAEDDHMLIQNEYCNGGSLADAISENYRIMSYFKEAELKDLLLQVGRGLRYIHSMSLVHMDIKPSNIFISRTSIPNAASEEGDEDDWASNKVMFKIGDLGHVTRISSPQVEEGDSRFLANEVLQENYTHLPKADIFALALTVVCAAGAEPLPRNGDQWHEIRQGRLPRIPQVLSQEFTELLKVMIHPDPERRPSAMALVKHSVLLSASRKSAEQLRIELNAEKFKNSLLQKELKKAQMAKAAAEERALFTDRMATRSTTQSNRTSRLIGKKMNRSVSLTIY
Summary of the method: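 Wee1 at 150 nM with 20 μM MBP substrate in pH 7.5 HEPES buffer (10 mM MgCl2, 2 mM DTT, 1% DMSO) was preincubated 20 min at RT with compounds in a 10-point 3-fold dilution series. The reaction was started with ^33P-ATP and run 2 h at RT. Kinase activity was measured by filter binding.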

[5] = pH 6.5, shaken 24 hours at room temperature, read-out: Solubility (μM) pH 6.5
[6] = pH 7.4, shaken 24 hours at room temperature, read-out: Solubility (μM) pH 7.4

SMILES	solubility at 24 h [1, 5] [µM]	solubility at 24 h [1, 6] [µM]	AUC(0-t) ([2]; Colon) [µM·h]	Cmax ([2]; Colon) [µM]	Tmax ([2]; Colon) [h]	AUC(0-t) ([2]; liver) [µM·h]	Cmax ([2]; liver) [µM]	Tmax ([2]; liver) [h]	AUC(0-t) ([2]; lung) [µM·h]	Cmax ([2]; lung) [µM]	Tmax ([2]; lung) [h]	AUC(0-t) ([2]; pancreas) [µM·h]	Cmax ([2]; pancreas) [µM]	Tmax ([2]; pancreas) [h]	AUC(0-t) ([2]; plasma) [µM·h]	clearance [3] [mL/min/kg]	AUC [3] [µM·h]	half-life [3] [h]	bioavailability [3] [%]	IC50 [4] [nM]	other results
C=CCn1c(=O)c2cnc(Nc3ccc(N4CCN(C)CC4)cc3)nc2n1-c1cccc(C(C)(C)O)n1 [AZD1775, reference compound]	434 (≈ 217 µg/mL)	68.8 (≈ 34.4 µg/mL)	225	238	0.5	117	38.1	0.5	36.5	17.2	0.5	55.5	35.6	0.5	6.97	85.7	1.2	0.25	31		Cmax ([2]; plasma): 3.07 µM; Tmax ([2]; plasma): 0.5 h; AUC(0-t) ([2]; tumer (tumor)): 15.3 µM·h; Cmax ([2]; tumer (tumor)): 3.85 µM; Tmax ([2]; tumer (tumor)): 2 h
C=CCn1c(=O)c2cnc(Nc3ccc(N4CCC5(CCN(C)CC5)CC4)cc3)nc2n1-c1cccc(C(=O)N(C)C)n1 [Embodiment 15, 6-(2-allyl-6-((4-(9-methyl-3,9-diazaspiro[5.5]undecan-3-yl)phenyl)amino)-3-oxo-2,3-dihydro-1H-pyrazolo[3,4-d]pyrimidin-1-yl)-N,N-dimethylpicolinamide]																57.1	1.73	1.7	35.3	31.5	
C=CCn1c(=O)c2cnc(Nc3ccc(N4CCC5(CCN(C)CC5)CC4)cc3)nc2n1-c1cccc(C(C)(C)O)n1 [Embodiment 29, 2-allyl-1-(6-(2-hydroxypropan-2-yl)pyridin-2-yl)-6-((4-(9-methyl-3,9-diazaspiro[5.5]undecan-3-yl)phenyl)amino)-1H-pyrazolo[3,4-d]pyrimidin-3(2H)-one]	1470 (≈ 835 µg/mL)	1050 (≈ 595 µg/mL)														51	2.15	1.49	32.4	13.4	solubility in water ([1]; in words, compared to AZD1775, pH=6.5 and pH=7.4): excellent solubility in water
C=CCn1c(=O)c2cnc(Nc3ccc(N4CCC5(CCN(C(C)=O)CC5)CC4)cc3)nc2n1-c1cccc(C(C)(C)O)n1 [Embodiment 30, 6-((4-(9-acetyl-3,9-diazaspiro[5.5]undecan-3-yl)phenyl)amino)-2-allyl-1-(6-(2-hydroxypropan-2-yl)pyridin-2-yl)-1H-pyrazolo[3,4-d]pyrimidin-3(2H)-one]			402	135	0.5	257	67.7	2	74.7	14.6	2	253	49.3	2	14.2					58.8	AUC(0-t) ([2]; Brain): 2.12 µM·h; Cmax ([2]; Brain): 0.959 µM; Tmax ([2]; Brain): 0.5 h; Cmax ([2]; plasma): 4.27 µM; Tmax ([2]; plasma): 2 h; AUC(0-t) ([2]; tumer (tumor)): 37.3 µM·h; Cmax ([2]; tumer (tumor)): 5.42 µM; Tmax ([2]; tumer (tumor)): 8 h
C=CCn1c(=O)c2cnc(Nc3ccc(N4CCC5(CCN(C)CC5)CC4)cc3)nc2n1-c1cccc(C2(F)COC2)n1 [Embodiment 43, 2-allyl-1-(6-(3-fluorooxetan-3-yl)pyridin-2-yl)-6-((4-(9-methyl-3,9-diazaspiro[5.5]undecan-3-yl)phenyl)amino)-1H-pyrazolo[3,4-d]pyrimidin-3(2H)-one]																23	5.59	1.81	45.1	12.1	
